Measurements from publication PMC7306898, “Concentration-Dependent Activity of Hydromethylthionine on Clinical Decline and Brain Atrophy in a Randomized Controlled Trial in Behavioral Variant Frontotemporal Dementia” (Journal of Alzheimer's Disease, 2020).

How the values were obtained:
Assay type in all cases: in vivo, human
bvFTD patients [1] = test: Exposure-response and expanded Hill equation analysis
Method: The protocol specified that PK plasma sampling was to be conducted only at sites with adequate facilities (i.e., a refrigerated centrifuge and adequate capability to freeze samples reliably). Blinded analyses were conducted at the University of Aberdeen GLP Test Facility. […] The method was validated for use in the Phase III studies over the range 0.2 to 10 ng/ml. […] Model development and estimation of steady state maximum plasma concentration (Cmax,ss) were determined independently by the Institute of Clinical Pharmacodynamics (ICPD, NY, USA). Cmax,ss estimates using a model validated in Phase I studies were based on in-clinic plasma concentration data obtained on Day 1 when the dose-sampling interval was accurately recorded. […] Change in ACE-R, ACE-III, FAQ, MMSE, Modified-CGIC, FRS, whole brain volume (WBV), lateral ventricular volume (LVV), and frontotemporal volume (FTV), as well as UPDRS Part III, were expressed as a function of Cmax,ss estimates grouped into four groups described in the results section. Cmax,ss values outside 3x the interquartile range were excluded from determination of concentration-response relationships, but were included in inferential statistical analyses.
A further analysis was undertaken (HS, BOS) using a modified form of the Hill equation which is commonly used in the analysis of concentration-response data in order to estimate the minimum and maximum plasma concentrations for expected treatment response over 52 weeks. […] In addition, a linear term was added to permit trends occurring at high concentrations to be included in the model. […] The modified Hill equation was applied to the data in the form:
change in parameter = Emin - (Emax x ([C]- 0.29))/(EC50 + ([C] -0.29)) + (A x ([C] -0.29))
where dose is in mg/day and Cmax,ss is in ng/ml units.

bvFTD patients [2] = test: Frontotemporal volume (FTV) change by MRI (Tensor-Based Morphometry); settings: Patients receiving 8 mg/day, vs Cmax,ss ≤[…], 52 weeks
Source text: (§1) The two doses were provided in identical blister packages as visually identical oral tablets to be taken for up to 52 weeks. The primary outcome was the Addenbrookes Cognitive Examination – Revised (ACE-R). The Functional Activities Questionnaire (FAQ) and reduction in progression of whole brain atrophy were alternative co-primary outcomes. Other outcomes included: Modified Alzheimer’s Disease Cooperative Study – Clinical Global Impression of Change (Modified-CGIC) determined by a third independent rater; Frontotemporal Dementia Rating Scale (FRS); MMSE (from MMSE items incorporated into ACE-R); Addenbrookes Cognitive Examination – III (a revised version of ACE-R which excludes MMSE items subject to copyright restrictions); change in brain volume measured by MRI in frontal and temporal lobes (FTV) and lateral ventricles (LVV); and the effect of hydromethylthionine in patients with known genetic mutations associated with bvFTD. Blood was collected prospectively for the purpose of population PK analyses.
MRI scans were obtained at screening and weeks 16, 32, and 52. The acquisition protocol was standardized across sites and all data were centrally collected, quality-controlled, and analyzed by the imaging core laboratory (Bioclinica). MRI data included a 3D sagittal T1-weighted sequence (using parameters compatible with the ADNI protocol) which was used for all volumetric analyses. […]

bvFTD patients [3] = test: Modified-CGIC, 52-week Phase III trial
Source text: as §1
The primary analyses were specified as a mixed model, repeated-measures analysis with an unstructured covariance matrix and no imputation for missing data. The model included visit (three levels corresponding to assessments at weeks 16, 32, and 52), treatment group (two levels, 4 mg or 100 mg twice a day), a visit by treatment group interaction term, use of AD-labelled medications (two levels, using or not using), geographic region (three levels: North America, Asia/Australia, Europe), and baseline value of the variable analyzed. The individual comparisons were implemented through contrasts. The Bonferroni-Holm correction was used to take account of multiplicity arising from alternative co-primary outcomes (FAQ and whole brain atrophy). We used the same method for all secondary analyses in predefined gated sequences such that no further adjustment of alpha (0.05) was needed.
The concentration-response analyses used a Mixed-effect Model Repeat Measurement (MMRM) with per-subject correction and an unstructured covariance matrix according to the following formula: […]

With CN(C)c1ccc2c(c1)Sc1cc(N(C)C)ccc1N2 [hydromethylthionine, leuco-methylthioninium bis(hydromethanesulphonate)] the “plasma levels over which there are steep concentration-response relationships on clinical and MRI outcomes” value (bvFTD patients [1]; 8 mg/day dose, bvFTD) was 0.3 to 0.6 ng/mL, the “dose at which pharmacological activity is predicted to peak in bvFTD” value (bvFTD patients [1]; Hill equation analyses) was ~30 mg/day and the “doses at which treatment responses in bvFTD are predicted to be maximal / roughly comparable” value (bvFTD patients [1]; Hill equation analysis) was 20 to 60 mg/day. The “predicted treatment effect on whole brain atrophy” value (bvFTD patients [1]; at 30 mg/day dose) was 18.52 cm^3, the “predicted treatment effect on the FAQ scale” value (bvFTD patients [1]; at 30 mg/day dose, mean, bootstrap analysis) was 7.73 units and the “theoretical dose corresponding to the upper limiting concentration” value (bvFTD patients [1]; expanded Hill equation) was 301 mg/day. For the same molecule, the “lower (minimum) limiting plasma concentration required for treatment response” value (bvFTD patients [1]; expanded Hill equation, 8 mg/day) was 0.29 ng/mL, the “upper limiting concentration at which the treatment effect would be lost” value (bvFTD patients [1]; expanded Hill equation, whole brain volume, 200 mg/day terciles) was 13.6 ng/mL and the “plasma concentration (Cmax,ss) threshold required for clinical pharmacological activity in bvFTD” value (bvFTD patients [1]; upper limit of the lowest 35% group at 8 mg/day) was 0.346 ng/ml. For the same molecule, the “FTV: Difference±SEM for Cmax,ss > […]” value (bvFTD patients [2]) was 0.72±0.27 cm^3, the “CGIC: Decline±SEM for LMTM 8 mg/day group” value (bvFTD patients [3]; 8 mg/day (n = 110), 52 weeks) was “–1.05±0.11” and the “reduction in decline, Modified-CGIC” value (bvFTD patients [3]; 8 mg/day, plasma levels above vs below […] threshold) was 48%. For the same molecule, the “CGIC: Difference±SEM from LMTM 8 mg/day for 200 mg/day” value (bvFTD patients [3]; 200 mg/day (n = 104) vs 8 mg/day, 52 weeks) was “–0.04±0.16”.
